Laboratory results from the supplement of paper PMC6045584.
± gives the standard deviation of the averaged measurements.

Assays:
YM155 = compound: COCC[n+]1c2c(n(Cc3cnccn3)c1C)C(=O)c1ccccc1C2=O [YM155]; assay: surviving fraction relative to DMSO-only wells; higher = less growth inhibition; conditions: exposure time: 5 days
How it was run: (§1)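 Surviving fraction is CellTiter-Glo luminescence divided by the median of wells given DMSO only. For this, log-phase tumour cell lines went into 384-well plates at 250–500 cells per well and, 24 hours later, into five days of continuous inhibitor exposure at 0.5, 1, 5, 10, 50, 100, 500 and 1000 nM. Lines were screened three times and retained only if replicate Pearson r >0.7 and median Z' >0.3.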

OSI-906 = compound: C[C@]1(O)C[C@@H](c2nc(-c3ccc4ccc(-c5ccccc5)nc4c3)c3c(N)nccn32)C1 [OSI-906]; assay: as above; conditions: exposure time: 5 days
How it was run: as §1

## 22RV1 PROSTATE
YM155; 0.5 nM
  surviving fraction: 1.12 ± 0.21
YM155; 1 nM
  surviving fraction: 1.05 ± 0.097
YM155; 5 nM
  surviving fraction: 0.703 ± 0.16
YM155; 10 nM
  surviving fraction: 0.679 ± 0.13
YM155; 50 nM
  surviving fraction: 0.151 ± 0.16
YM155; 100 nM
  surviving fraction: 0.165 ± 0.23
YM155; 500 nM
  surviving fraction: 0.101 ± 0.14
YM155; 1000 nM
  surviving fraction: 0.121 ± 0.16
OSI-906; 0.5 nM
  surviving fraction: 0.9557 ± 0.009
OSI-906; 1 nM
  surviving fraction: 1 ± 0.097
OSI-906; 5 nM
  surviving fraction: 0.934 ± 0.11
OSI-906; 10 nM
  surviving fraction: 1.01 ± 0.18
OSI-906; 50 nM
  surviving fraction: 0.902 ± 0.049
OSI-906; 100 nM
  surviving fraction: 0.928 ± 0.077
OSI-906; 500 nM
  surviving fraction: 0.911 ± 0.14
OSI-906; 1000 nM
  surviving fraction: 0.803 ± 0.11

## 93VU HEADNECK
YM155; 0.5 nM
  surviving fraction: 0.961 ± 0.099
YM155; 1 nM
  surviving fraction: 0.982 ± 0.081
YM155; 5 nM
  surviving fraction: 1.06 ± 0.061
YM155; 10 nM
  surviving fraction: 1.045 ± 0.0081
YM155; 50 nM
  surviving fraction: 0.839 ± 0.034
YM155; 100 nM
  surviving fraction: 0.815 ± 0.06
YM155; 500 nM
  surviving fraction: 0.193 ± 0.011
YM155; 1000 nM
  surviving fraction: 0.123 ± 0.027
OSI-906; 0.5 nM
  surviving fraction: 0.821 ± 0.057
OSI-906; 1 nM
  surviving fraction: 0.793 ± 0.053
OSI-906; 5 nM
  surviving fraction: 0.836 ± 0.041
OSI-906; 10 nM
  surviving fraction: 0.809 ± 0.13
OSI-906; 50 nM
  surviving fraction: 0.974 ± 0.069
OSI-906; 100 nM
  surviving fraction: 0.848 ± 0.014
OSI-906; 500 nM
  surviving fraction: 0.711 ± 0.021
OSI-906; 1000 nM
  surviving fraction: 0.724 ± 0.23

## 143B BONE
YM155; 0.5 nM
  surviving fraction: 0.89 ± 0.082
YM155; 1 nM
  surviving fraction: 0.987 ± 0.027
YM155; 5 nM
  surviving fraction: 0.431
YM155; 10 nM
  surviving fraction: 0.246 ± 0.042
YM155; 50 nM
  surviving fraction: 0.0735 ± 0.0064
YM155; 100 nM
  surviving fraction: 0.0375 ± 0.0021
YM155; 500 nM
  surviving fraction: 0.022 ± 0.0014
YM155; 1000 nM
  surviving fraction: 0.0265 ± 0.00071
OSI-906; 0.5 nM
  surviving fraction: 1.02 ± 0.048
OSI-906; 1 nM
  surviving fraction: 0.972 ± 0.028
OSI-906; 5 nM
  surviving fraction: 1.07 ± 0.071
OSI-906; 10 nM
  surviving fraction: 1.04 ± 0.05
OSI-906; 50 nM
  surviving fraction: 0.959 ± 0.083
OSI-906; 100 nM
  surviving fraction: 0.99 ± 0.011
OSI-906; 500 nM
  surviving fraction: 0.9825 ± 0.0078
OSI-906; 1000 nM
  surviving fraction: 0.989 ± 0.023

## A549 LUNG
YM155; 0.5 nM
  surviving fraction: 0.977 ± 0.029
YM155; 1 nM
  surviving fraction: 1.01 ± 0.034
YM155; 5 nM
  surviving fraction: 0.971 ± 0.021
YM155; 10 nM
  surviving fraction: 0.98 ± 0.021
YM155; 50 nM
  surviving fraction: 0.191 ± 0.005
YM155; 100 nM
  surviving fraction: 0.12 ± 0.0047
YM155; 500 nM
  surviving fraction: 0.024
YM155; 1000 nM
  surviving fraction: 0.028
OSI-906; 0.5 nM
  surviving fraction: 0.932 ± 0.016
OSI-906; 1 nM
  surviving fraction: 0.943 ± 0.028
OSI-906; 5 nM
  surviving fraction: 0.948 ± 0.0087
OSI-906; 10 nM
  surviving fraction: 0.931 ± 0.013
OSI-906; 50 nM
  surviving fraction: 0.96 ± 0.029
OSI-906; 100 nM
  surviving fraction: 0.97 ± 0.031
OSI-906; 500 nM
  surviving fraction: 0.935 ± 0.027
OSI-906; 1000 nM
  surviving fraction: 0.908 ± 0.025

## ASKA SYNOVIAL
YM155; 0.5 nM
  surviving fraction: 0.87 ± 0.054
YM155; 1 nM
  surviving fraction: 0.924 ± 0.094
YM155; 5 nM
  surviving fraction: 0.719 ± 0.039
YM155; 10 nM
  surviving fraction: 0.375 ± 0.017
YM155; 50 nM
  surviving fraction: 0.227 ± 0.017
YM155; 100 nM
  surviving fraction: 0.195 ± 0.017
YM155; 500 nM
  surviving fraction: 0.194 ± 0.011
YM155; 1000 nM
  surviving fraction: 0.243 ± 0.017
OSI-906; 0.5 nM
  surviving fraction: 0.934 ± 0.059
OSI-906; 1 nM
  surviving fraction: 0.99 ± 0.057
OSI-906; 5 nM
  surviving fraction: 1.01 ± 0.011
OSI-906; 10 nM
  surviving fraction: 1.07 ± 0.071
OSI-906; 50 nM
  surviving fraction: 1.11 ± 0.13
OSI-906; 100 nM
  surviving fraction: 1.12 ± 0.045
OSI-906; 500 nM
  surviving fraction: 0.966 ± 0.083
OSI-906; 1000 nM
  surviving fraction: 0.97 ± 0.029

## BT20 BREAST
YM155; 0.5 nM
  surviving fraction: 0.907 ± 0.077
YM155; 1 nM
  surviving fraction: 0.875 ± 0.089
YM155; 5 nM
  surviving fraction: 0.0757 ± 0.0075
YM155; 10 nM
  surviving fraction: 0.0613 ± 0.006
YM155; 50 nM
  surviving fraction: 0.028 ± 0.0017
YM155; 100 nM
  surviving fraction: 0.025 ± 0.0027
YM155; 500 nM
  surviving fraction: 0.019 ± 0.002
YM155; 1000 nM
  surviving fraction: 0.027 ± 0.002
OSI-906; 0.5 nM
  surviving fraction: 0.736 ± 0.051
OSI-906; 1 nM
  surviving fraction: 0.724 ± 0.058
OSI-906; 5 nM
  surviving fraction: 0.776 ± 0.05
OSI-906; 10 nM
  surviving fraction: 0.763 ± 0.073
OSI-906; 50 nM
  surviving fraction: 1 ± 0.031
OSI-906; 100 nM
  surviving fraction: 1.05 ± 0.095
OSI-906; 500 nM
  surviving fraction: 1.23 ± 0.05
OSI-906; 1000 nM
  surviving fraction: 1.28 ± 0.04

## BT549 BREAST
YM155; 0.5 nM
  surviving fraction: 1.08 ± 0.11
YM155; 1 nM
  surviving fraction: 1.03 ± 0.11
YM155; 5 nM
  surviving fraction: 0.99 ± 0.0076
YM155; 10 nM
  surviving fraction: 0.834 ± 0.11
YM155; 50 nM
  surviving fraction: 0.256 ± 0.083
YM155; 100 nM
  surviving fraction: 0.0713 ± 0.018
YM155; 500 nM
  surviving fraction: 0.029 ± 0.008
YM155; 1000 nM
  surviving fraction: 0.0307 ± 0.0023
OSI-906; 0.5 nM
  surviving fraction: 0.867 ± 0.08
OSI-906; 1 nM
  surviving fraction: 0.792 ± 0.027
OSI-906; 5 nM
  surviving fraction: 0.836 ± 0.048
OSI-906; 10 nM
  surviving fraction: 0.88 ± 0.13
OSI-906; 50 nM
  surviving fraction: 1.11 ± 0.18
OSI-906; 100 nM
  surviving fraction: 0.984 ± 0.059
OSI-906; 500 nM
  surviving fraction: 1.1 ± 0.096
OSI-906; 1000 nM
  surviving fraction: 0.94 ± 0.067

## CADOES1 SOFT TISSUE
YM155; 0.5 nM
  surviving fraction: 1.06 ± 0.12
YM155; 1 nM
  surviving fraction: 0.907 ± 0.093
YM155; 5 nM
  surviving fraction: 0.92 ± 0.096
YM155; 10 nM
  surviving fraction: 0.911 ± 0.12
YM155; 50 nM
  surviving fraction: 1.02 ± 0.056
YM155; 100 nM
  surviving fraction: 0.934 ± 0.071
YM155; 500 nM
  surviving fraction: 0.852 ± 0.054
YM155; 1000 nM
  surviving fraction: 0.881 ± 0.064
OSI-906; 0.5 nM
  surviving fraction: 1.025 ± 0.0076
OSI-906; 1 nM
  surviving fraction: 1.04 ± 0.024
OSI-906; 5 nM
  surviving fraction: 0.957 ± 0.096
OSI-906; 10 nM
  surviving fraction: 1.02 ± 0.036
OSI-906; 50 nM
  surviving fraction: 0.847 ± 0.14
OSI-906; 100 nM
  surviving fraction: 0.886 ± 0.1
OSI-906; 500 nM
  surviving fraction: 0.871 ± 0.059
OSI-906; 1000 nM
  surviving fraction: 0.962 ± 0.023

## CAL51 BREAST
YM155; 0.5 nM
  surviving fraction: 0.905 ± 0.039
YM155; 1 nM
  surviving fraction: 0.873 ± 0.042
YM155; 5 nM
  surviving fraction: 0.231 ± 0.029
YM155; 10 nM
  surviving fraction: 0.105 ± 0.015
YM155; 50 nM
  surviving fraction: 0.0278 ± 0.001
YM155; 100 nM
  surviving fraction: 0.0232 ± 0.00058
YM155; 500 nM
  surviving fraction: 0.019 ± 0.00087
YM155; 1000 nM
  surviving fraction: 0.024 ± 0.0005
OSI-906; 0.5 nM
  surviving fraction: 0.958 ± 0.023
OSI-906; 1 nM
  surviving fraction: 0.924 ± 0.018
OSI-906; 5 nM
  surviving fraction: 0.9553 ± 0.0093
OSI-906; 10 nM
  surviving fraction: 0.94 ± 0.087
OSI-906; 50 nM
  surviving fraction: 1.01 ± 0.02
OSI-906; 100 nM
  surviving fraction: 0.992 ± 0.031
OSI-906; 500 nM
  surviving fraction: 0.948 ± 0.029
OSI-906; 1000 nM
  surviving fraction: 0.922 ± 0.074

## CAL72 BONE
YM155; 0.5 nM
  surviving fraction: 1.05 ± 0.081
YM155; 1 nM
  surviving fraction: 1.01 ± 0.097
YM155; 5 nM
  surviving fraction: 0.347 ± 0.082
YM155; 10 nM
  surviving fraction: 0.202 ± 0.034
YM155; 50 nM
  surviving fraction: 0.058 ± 0.005
YM155; 100 nM
  surviving fraction: 0.0473 ± 0.0047
YM155; 500 nM
  surviving fraction: 0.0423 ± 0.0029
YM155; 1000 nM
  surviving fraction: 0.054 ± 0.0044
OSI-906; 0.5 nM
  surviving fraction: 1.009 ± 0.006
OSI-906; 1 nM
  surviving fraction: 1 ± 0.018
OSI-906; 5 nM
  surviving fraction: 0.998 ± 0.049
OSI-906; 10 nM
  surviving fraction: 0.966 ± 0.058
OSI-906; 50 nM
  surviving fraction: 1 ± 0.038
OSI-906; 100 nM
  surviving fraction: 0.98 ± 0.028
OSI-906; 500 nM
  surviving fraction: 0.893 ± 0.048
OSI-906; 1000 nM
  surviving fraction: 0.861 ± 0.082
